Measurements published in the Biogen ADME set (Fang et al. 2023).
≈ marks a conversion by molar mass, not a printed value.

Conditions: for aqueous solubility: pH 6.8

Compound | MDR1-MDCK efflux ratio | intrinsic clearance, human liver microsomes [L/h/kg] | intrinsic clearance, rat liver microsomes [L/h/kg] | aqueous solubility [mg/mL] | fraction unbound, human plasma | fraction unbound, rat plasma
CC1(C)OCCn2c1nc1c(N3CCOCC3)nc(-c3cnc(N)nc3)nc12 | 1.31 | 0.368 | 1.56 | 0.00644 (≈ 16.8 µM) |  | 
O=C1/C(=C2/CCCCCN2)C(Nc2ccccc2)=NN1c1ccccc1 | 0.737 |  |  | 0.00054 (≈ 1.56 µM) |  | 
COc1ccccc1/C=C/CN1C[C@H]2CCCN2C[C@@H]1C | 0.741 | 1.01 | 87 |  |  | 
CC(C)(C)c1csc(Cn2ccnc2-c2ccccn2)n1 |  | 7.29 | 157 |  |  | 
CNC(=O)c1cc(C2CCN(C)CC2)ncn1 | 0.605 | ≤ 0.284 | ≤ 0.64 | 0.0325 (≈ 139 µM) |  | 
Cc1cc(C)cc(C(=O)Nc2nn(C(C)(C)C)cc2C#N)c1 | 2.1 | 0.673 | 16.2 | 0.0386 (≈ 130 µM) |  | 
Cn1c(=O)n(Cc2cccnc2)c(=O)c2ccc(C(F)(F)F)nc21 | 0.645 | ≤ 0.284 | 5.02 |  |  | 
Cc1ccc(OCN2CCCCC2=O)nc1 | 2.63 | 0.316 | ≤ 0.64 |  |  | 
Cc1cc(C)c(CC(=O)N2CC(CO)C2)c(C)c1 | 1.72 | 0.3 | 0.934 | 0.0463 (≈ 187 µM) |  | 
O=C(NC1CCCC1)c1cc(C2CC2)nc2ccccc12 | 0.695 | 3.71 | 8.38 | 0.0186 (≈ 66.3 µM) |  | 
CC(C)NC(=O)Cn1nnnc1C(C)(C)C | 1.25 | ≤ 0.284 | 1.63 | 0.0233 (≈ 103 µM) |  | 
c1cnc(NCc2cccc(-c3cccnc3)c2)nc1 | 0.571 | 1.18 | 8.86 |  |  | 
CN1CCC(O)(CNS(=O)(=O)CC2CCCCC2)CC1 | 2.92 | ≤ 0.284 | 23.2 |  |  | 
CCc1cnccc1C(=O)Nc1cnccn1 | 0.767 | ≤ 0.284 | 1.03 |  |  | 
Cc1cnc(Cl)nc1-c1ccc(N(Cc2ccc(CNC(=O)C(F)F)cc2)C(=O)c2ccc(O)cc2O)cc1 | 54.7 | 2.48 | 5.07 | 0.0276 (≈ 49.8 µM) |  | 
CCCn1ncc2ccc(C3CCCN(CC(=O)N4CCCC4)C3)nc21 (stereo not drawn) | 6.7 | 1.66 | 17.3 | 0.0494 (≈ 139 µM) |  | 
CC(C)(C)Cc1nnc(-c2cnc3onc(C4CCCC4)c3c2)o1 |  |  |  | 0.00399 (≈ 12.2 µM) |  | 
COC(=O)[C@@H]1C[C@H](O)CN1CC#Cc1ccc(Cl)cc1 | 0.681 |  |  | 0.0318 (≈ 108 µM) |  | 
Cc1cnn(Cc2cc(F)ccc2F)c1N |  | 0.402 | ≤ 0.64 | 0.0412 (≈ 185 µM) |  | 
CCc1c(C(=O)NCCc2ccc(N3CCCCC3)cc2)[nH]c2ccc(Cl)cc12 | 0.577 | 2.43 | 29 |  |  | 

Compound | MDR1-MDCK efflux ratio | intrinsic clearance, human liver microsomes [L/h/kg] | intrinsic clearance, rat liver microsomes [L/h/kg] | aqueous solubility [mg/mL] | fraction unbound, human plasma | fraction unbound, rat plasma
O=C(c1cc(-c2cccc(Cl)c2)on1)N1CCC(n2cccc2)CC1 | 0.698 | 0.927 | 16.4 | 0.0105 (≈ 29.4 µM) |  | 
Cc1cn(-c2cc(NC(=O)c3ccc(C)c(Nc4nccc(-c5cccnc5)n4)c3)cc(C(F)(F)F)c2)cn1 | 8.9 |  |  |  |  | 
O=C(CCc1ccc2c(c1)OCO2)Nc1cccc2cnccc12 | 1.01 | 2.51 | 18 | 0.0447 (≈ 140 µM) |  | 
CN(C)Cc1ccc(-c2ccccc2C(=O)O)cc1 |  | ≤ 0.284 | ≤ 0.64 | 0.0305 (≈ 119 µM) |  | 
COc1ccccc1NC(=O)CN1CCCN(c2nc(C)cs2)CC1 | 0.716 | 21.5 | 117 | 0.0555 (≈ 154 µM) |  | 
O=C1c2ccccc2C(=O)N1CCNc1ccc(F)cc1 | 0.43 | 5.26 | 36.9 |  |  | 
CC(C)(C)C(=O)N1CCN(C(=O)CCN2CCOC2=O)CC1 | 64.9 | ≤ 0.284 | ≤ 0.64 | 0.0627 (≈ 201 µM) |  | 
O=C(OCC1CCSCC1)c1cccc(-n2cccn2)n1 | 0.495 | 40.7 | 132 |  |  | 
Cc1cc(C)c(NC(=O)Cn2nnn(-c3cccs3)c2=O)c(C)c1 | 0.738 |  |  | 0.00077 (≈ 2.24 µM) |  | 
CCCCN1CCc2nc3cc(C4CC4)nn3c(O)c2C1 | 26.5 | ≤ 0.284 | ≤ 0.64 |  |  | 
Cc1ccccc1OC1CCN(C(=O)Nc2ccc3c(c2)ncn3C)CC1 | 8.7 | 0.686 | 3.27 | 0.0267 (≈ 73.4 µM) |  | 
Cc1sc2ncnc(OCC(=O)Nc3ccc4c(c3)OCO4)c2c1C | 0.986 |  |  | 0.00026 (≈ 0.727 µM) |  | 
OC(CNCc1ccc(OCc2cccs2)cc1)c1ccccc1 (stereo not drawn) |  |  |  | 0.0429 (≈ 126 µM) |  | 
c1ccc2nc(N3CCC(c4nc5ccccc5[nH]4)CC3)cnc2c1 |  |  |  | 0.0024 (≈ 7.29 µM) |  | 
CCCn1cnnc1CN(C)Cc1ccc(C(F)(F)F)nc1 | 23.6 | ≤ 0.284 | 1.77 |  |  | 
Cc1nc(C)c2c(C)c(C(=O)N(C)CCN3CCCC3)sc2n1 | 12.6 | ≤ 0.284 | 4.67 | 0.0609 (≈ 183 µM) |  | 
Cc1cn2nc(-c3cc(=O)n4cc(N5CCNC6(CC6)C5)ccc4n3)cc(C)c2n1 | 12.7 | 1.05 |  | 0.036 (≈ 89.7 µM) | 0.0967 | 
NCc1nnc(CCc2ccccc2)o1 |  | ≤ 0.284 | ≤ 0.64 |  |  | 
Cc1noc([C@@H]2C[C@H](NC(=O)c3ccc(F)cc3)CN2C)n1 | 0.792 | 0.413 | 0.981 | 0.0162 (≈ 53.2 µM) |  | 
CCc1nc(N2CC(CO)C2)c2ccsc2n1 | 1.33 | 0.644 | 3 |  |  | 

Compound | MDR1-MDCK efflux ratio | intrinsic clearance, human liver microsomes [L/h/kg] | intrinsic clearance, rat liver microsomes [L/h/kg] | aqueous solubility [mg/mL] | fraction unbound, human plasma | fraction unbound, rat plasma
CCCNC(=O)C1(Cc2ccccn2)CCOCC1 | 10.9 | ≤ 0.284 | ≤ 0.64 | 0.0853 (≈ 325 µM) |  | 
CCONC(=O)Cc1coc2c(C)c(C)ccc12 |  | 5.38 | 63.5 | 0.0342 (≈ 138 µM) |  | 
O=C(c1ccc(-c2ccncc2)cc1)N1CCC(O)(CN2CCCC2)CC1 | 17.7 | ≤ 0.284 | 4.56 |  |  | 
Cn1cc(C2CCN(CC(=O)N3CCc4sccc4C3)CC2)cn1 | 2.76 | ≤ 0.284 | 7.53 | 0.062 (≈ 180 µM) |  | 
Cc1nnc(-c2ccc(N3CCC(Oc4ccccc4C(F)(F)F)CC3)nn2)s1 | 0.485 | 0.865 |  |  | 0.00124 | 
C[C@H](Cc1cc2c(c(C(N)=O)c1)N(CCCO)CC2)NCCOc1ccccc1OCC(F)(F)F | 27.4 | 3.54 | 18.8 |  |  | 
O=C(O)Cc1nc2ccccc2[nH]1 |  |  |  | 0.0101 (≈ 57 µM) |  | 
O=C(Nc1ccc(F)cc1)[C@H](O)c1ccccc1 |  |  |  | 0.0429 (≈ 175 µM) |  | 
Cc1ccc2[nH]c(C3CN(C(=O)Cc4cccc5ccccc45)C3)nc2c1 | 15.2 |  |  | 0.0003 (≈ 0.844 µM) |  | 
O=C(c1ccccc1-n1cccn1)N1CCN(Cc2cccnc2)CC1 | 19.3 | 3.36 | 36.3 | 0.0544 (≈ 157 µM) |  | 
O=C(Nc1cc[nH]n1)c1ccc2c(c1)[nH]c(=O)n2C1CCCC1 |  | 1.09 | 3.21 |  |  | 
CCc1cc(-c2ccc(OC)c3nc(C)ccc23)nc(N2CCOCC2)n1 | 1.12 | 0.383 | 6.3 |  |  | 
COc1cc(CNCCN2CCOCC2)cc(Cl)c1OCc1ccccc1 | 1.94 | 2.78 | 19.8 | 0.0535 (≈ 137 µM) |  | 
Cc1nc2ccccc2n1Cc1ccc(C(=O)O)cc1 | 2.75 | ≤ 0.284 | ≤ 0.64 | 0.0354 (≈ 133 µM) |  | 
N#Cc1ccc(-c2csc(CCN3CCCC3=O)n2)cc1 | 0.985 | 0.349 | 4.04 | 0.0251 (≈ 84.3 µM) |  | 
COc1cc2c(cc1OC)CN(C(=O)C1CCCN(C(=O)Nc3ccccc3)C1)CC2 (stereo not drawn) | 27 | ≤ 0.284 | 3.91 | 0.0655 (≈ 155 µM) |  | 
CCc1nc2ccccc2n1CC(=O)N1CCNC(=O)C1 | 3.86 | ≤ 0.284 | ≤ 0.64 | 0.0506 (≈ 177 µM) |  | 
CN(C)C1=N[C@@H]2[C@@H](O)[C@H](O)[C@@H](CO)O[C@@H]2S1 | 0.274 | ≤ 0.284 | ≤ 0.64 | 0.0367 (≈ 148 µM) |  | 
CNC(=O)C1(Cc2ccc(-c3ccncc3)cc2)CCN(Cc2cccc(F)c2)C1 (stereo not drawn) |  | 15 | 53.5 | 0.0575 (≈ 143 µM) | 0.127 | 0.0519
CN(CC(=O)Nc1cccc(F)c1)C(=O)c1cccc(C#N)c1 | 6.11 | 1.59 | 7.87 | 0.0562 (≈ 181 µM) |  | 
